# Experimental data reported in patent US20160213742A1, “COMPOSITIONS AND METHODS FOR THE TREATMENT OF FUNGAL INFECTIONS” (priority 2013, published 2016).
# Legend:
# Format in all cases: cell-based
# [1] = system: C. albicans ATCC 90028; assay: microbe, parasite or virus in culture; conditions: ATCC 90028, pH 7
# Protocol: (§1) The test organisms consisted of strains from the Micromyx collection. Reference isolates were originally received from the American Type Culture Collection (ATCC; Manassas, Va.). Organisms received at Micromyx were initially streaked for isolation on Sabouraud dextrose or potato dextrose agar. Colonies were picked by swab from the medium and resuspended in the appropriate broth containing cryoprotectant. The suspensions were aliquoted into cryogenic vials and maintained at −80° C. Prior to testing, Candida isolates were streaked from the frozen vials on Sabouraud dextrose agar. The yeast isolates were incubated at overnight at 35° C. before use. The fungal isolates were incubated at least 7 days on Sabouraud dextrose agar slants at 35° C. before harvesting.
# (§2) Isolates were tested in RPMI medium (Catalog No. SH30011.04; Lot No. AWA92121B; HyClone Labs, Logan, Utah) which was prepared according to CLSI guidelines. The pH of the medium was adjusted to 7.0 with 1 N NaOH. The medium was sterile filtered using a 0.2 μm PES filter and stored at 4° C. until used.
# (§3) The MIC assay method employed automated liquid handlers to conduct serial dilutions and liquid transfers. Automated liquid handlers included the Multidrop 384 (Labsystems, Helsinki, Finland), Biomek 2000 and Biomek FX (Beckman Coulter, Fullerton Calif.). The wells in columns 2-12 in standard 96-well microdilution plates (Costar 3795) were filled with 150 μl of the correct diluent (50% DMSO for investigational compounds, 100% DMSO for comparator compounds). These would become the mother plates' from which ‘daughter’ or test plates would be prepared. Stocks were diluted to 40× the desired top concentration in the test plates in the indicated solvent, and 300 μL of the 40× stock was dispensed into the appropriate well in Column 1 of the mother plates. The Biomek 2000 was used to make serial serial 2-fold dilutions through Column 11 in the “mother plate”. The wells of Column 12 contained no drug and served as the organism growth control wells.
# (§4) The daughter plates were loaded with 185 μL per well of RPMI described above using the Multidrop 384. The daughter plates were prepared using the Biomek FX which transferred 5 μL of drug solution from each well of a mother plate to the corresponding well of the daughter plate in a single step.
# (§5) A standardized inoculum of each organism was prepared. For Candida, colonies were picked from the streak plate and a suspension was prepared in RPMI medium equal to a 0.5 McFarland standard, then diluted 1:100 in RPMI and transferred to compartments of sterile reservoirs divided by length (Beckman Coulter). For the Aspergillus isolates, previously prepared and quantitated suspensions were used to make dilutions in RPMI to reach 20× the final concentration. These dilutions were also transferred to compartments of sterile reservoirs divided by length (Beckman Coulter). The final concentration of the Aspergillus isolates was approximately 0.2-2.5×10^4 CFU/mL.
# (§6) The Biomek 2000 was used to inoculate the plates. Daughter plates were placed on the Biomek 2000 work surface reversed so that inoculation took place from low to high drug concentration. The Biomek 2000 delivered 10 μL of standardized inoculum into each well. Thus, the wells of the daughter plates ultimately contained 185 μL of RPMI, 5 μL of drug solution, and 10 μL of inoculum. The final concentration of DMSO in the test well was 2.5% for the evaluated comparators and 1.25% for the investigational agents.
# (§7) Plates were stacked 3 high, covered with a lid on the top plate, placed into plastic bags, and incubated at 35° C. for approximately 24-48 hr prior to reading. Plates were read when inoculum was confluent in growth wells. Plates were viewed from the bottom using a plate viewer. […] MICs were read where visible growth of the organism was inhibited. MECs were read where the growth shifted to a small, rounded, compact hyphal form as compared to the hyphal growth seen in the growth control well.
# [2] = system: C. glabrata ATCC 90030; assay: microbe, parasite or virus in culture; conditions: ATCC 90030, pH 7
# Protocol: as §1, §2, §3, §4, §5, §6, §7
# [3] = system: C. krusei ATCC 14243; assay: microbe, parasite or virus in culture; conditions: ATCC 14243, pH 7
# Protocol: as §1, §2, §3, §4, §5, §6, §7
# [4] = system: C. parapsilosis ATCC 22019; assay: microbe, parasite or virus in culture
# Protocol: as §1, §2, §3, §4, §5, §6, §7
# [5] = system: A. flavus MX 5948; assay: MEC assay (Example 31); conditions: RPMI pH 7.0, 35° C., 24-48 hr
# Protocol: as §1, §2, §3, §4, §5, §6, §7
# [6] = system: A. fumigatus ATCC 13073; assay: MEC assay (Example 31); conditions: RPMI pH 7.0, 35° C., 24-48 hr
# Protocol: as §1, §2, §3, §4, §5, §6, §7
# [7] = system: A. fumigatus MX 5944; assay: MEC assay (Example 31); conditions: RPMI pH 7.0, 35° C., 24-48 hr
# Protocol: as §1, §2, §3, §4, §5, §6, §7
# [8] = system: A. fumigatus MYA-3626; assay: MEC assay (Example 31); conditions: RPMI pH 7.0, 35° C., 24-48 hr
# Protocol: as §1, §2, §3, §4, §5, §6, §7
# [9] = system: A. fumigatus MYA-4609; assay: MEC assay (Example 31); conditions: RPMI pH 7.0, 35° C., 24-48 hr
# Protocol: as §1, §2, §3, §4, §5, §6, §7
MIC [1],MIC [2],MIC [3],"MIC ([4]; ATCC 22019, pH 7)","MIC ([4]; C. parapsilosis ATCC 22019, RPMI pH 7.0, 35° C., 24-48 hr)",Compound,MEC [5],MEC [6],MEC [7],MEC [8],MEC [9]
2 µg/mL,4 µg/mL,>4 µg/mL,>4 µg/mL,,CC[C@H](C)C[C@H](C)CCCCCCCCC(=O)N[C@H]1C[C@@H](O)[C@@H](NCCN)NC(=O)[C@@H]2[C@@H](O)CCN2C(=O)[C@H]([C@H](O)CCNC(=O)CCNC(=O)[C@H](Cc2ccccc2)NC(=O)[C@H](CC(C)C)NC(=O)[C@H](CCSC)NC(=O)OCC(C)C)NC(=O)[C@H]([C@H](O)[C@@H](O)c2ccc(O)cc2)NC(=O)[C@@H]2C[C@@H](O)CN2C(=O)[C@H]([C@@H](C)O)NC1=O [Compound 5],,,,,
2 µg/mL,4 µg/mL,8 µg/mL,32 µg/mL,,CC[C@H](C)C[C@H](C)CCCCCCCCC(=O)N[C@H]1C[C@@H](O)[C@@H](NCCNC(=O)CCNC(=O)[C@H](Cc2ccccc2)NC(=O)[C@H](CC(C)C)NC(=O)[C@H](CCSC)NC(C)=O)NC(=O)[C@@H]2[C@@H](O)CCN2C(=O)[C@H]([C@H](O)CCN)NC(=O)[C@H]([C@H](O)[C@@H](O)c2ccc(O)cc2)NC(=O)[C@@H]2C[C@@H](O)CN2C(=O)[C@H]([C@@H](C)O)NC1=O [Compound 8],1 µg/mL,1 µg/mL,1 µg/mL,1 µg/mL,1 µg/mL
2 µg/mL,8 µg/mL,16 µg/mL,32 µg/mL,,CC[C@H](C)C[C@H](C)CCCCCCCCC(=O)N[C@H]1C[C@@H](O)[C@@H](OCCN)NC(=O)[C@@H]2[C@@H](O)CCN2C(=O)[C@H]([C@H](O)CCNC(=O)CCNC(=O)[C@H](Cc2ccccc2)NC(=O)[C@H](CC(C)C)NC(=O)[C@H](CCSC)NC=O)NC(=O)[C@H]([C@H](O)[C@@H](O)c2ccc(O)cc2)NC(=O)[C@@H]2C[C@@H](O)CN2C(=O)[C@H]([C@@H](C)O)NC1=O [Compound 10],0.12 µg/mL,0.25 µg/mL,0.12 µg/mL,0.12 µg/mL,0.12 µg/mL
2 µg/mL,32 µg/mL,>32 µg/mL,>32 µg/mL,,CC[C@H](C)C[C@H](C)CCCCCCCCC(=O)N[C@H]1C[C@@H](O)[C@@H](NCCN)NC(=O)[C@@H]2[C@@H](O)CCN2C(=O)[C@H]([C@H](O)CCNC(=O)CCC(=O)NCCOCCOCCNC(=O)[C@H](Cc2ccccc2)NC(=O)[C@H](CC(C)C)NC(=O)[C@H](CCSC)NC=O)NC(=O)[C@H]([C@H](O)[C@@H](O)c2ccc(O)cc2)NC(=O)[C@@H]2C[C@@H](O)CN2C(=O)[C@H]([C@@H](C)O)NC1=O [Compound 16],,,,,
2 µg/mL,8 µg/mL,,,>16 to 32 µg/mL,CC[C@H](C)C[C@H](C)CCCCCCCCC(=O)N[C@H]1C[C@@H](O)[C@@H](OCCNC(=O)CCNC(=O)[C@H](Cc2ccccc2)NC(=O)[C@H](CC(C)C)NC(=O)[C@H](CCSC)NC=O)NC(=O)[C@@H]2[C@@H](O)CCN2C(=O)[C@H]([C@H](O)CCN)NC(=O)[C@H]([C@H](O)[C@@H](O)c2ccc(O)cc2)NC(=O)[C@@H]2C[C@@H](O)CN2C(=O)[C@H]([C@@H](C)O)NC1=O [Compound 9],0.06 to 0.12 µg/mL,0.06 to 0.12 µg/mL,0.12 µg/mL,0.12 µg/mL,0.06 to 0.5 µg/mL
